# Measurements as given in publication PMC3997483, “Aminostyrylbenzofuran Directly Reduces Oligomeric Amyloid-β and Reverses Cognitive Deficits in Alzheimer Transgenic Mice” (PLoS ONE, 2014).
# Read-outs that look alike come from different tables or passages of the source.
# Legend:
# [1] = biological target: T1, CYP2C9 (Homo sapiens, UniProt P11712); assay: CYP inhibition assay (Crespi, fluorescent probe); type: in vitro ADME
# T1 construct: five CYP isozymes (CYP3A4, 1A2, 2C9, 2C19, and 2D6) from human LM; from tissue; host or cells: human liver microsomes
# Method: (§1) Cytochrome P450 (CYP) inhibition assay was carried out according to the principle of the Crespi assay. Fluorescent probe substrates (BD Gentest, USA) used for each CYP isozyme were: 3-cyano-7-ethoxycoumarin for CYP1A2 and CYP2C19, 7-benzyloxy-trifluoromethylcoumarin for CYP3A4, 7-methoxy-4-trifluoromethylcoumarin for CYP2C9 and 3-[2-(N,N-diethyl-N-methylamino)ethyl]-7-methoxy-4-methyl-coumarin for CYP2D6. […] All reactions were stopped by addition of 75 µL of 0.1 M tris in acetonitrile and analyzed by an LC-MS/MS product ion monitoring method on Agilent 1200 HPLC (Agilent, USA) and API-5000 mass spectrometer (Canada). IC50 value was calculated using SigmaPlot 10.0 (Systat Software Inc., USA).
# [2] = biological target: T2, CYP2D6 (Homo sapiens, UniProt P10635); assay: CYP inhibition assay (Crespi, fluorescent probe); type: in vitro ADME
# T2 construct: five CYP isozymes (CYP3A4, 1A2, 2C9, 2C19, and 2D6) from human LM; from tissue; host or cells: human liver microsomes
# Method: as §1
# [3] = biological target: T3, CYP1A2 (Homo sapiens, UniProt P05177); assay: CYP inhibition assay (Crespi, fluorescent probe); type: in vitro ADME
# T3 construct: five CYP isozymes (CYP3A4, 1A2, 2C9, 2C19, and 2D6) from human LM; from tissue; host or cells: human liver microsomes
# T3 sequence (P05177 1-516): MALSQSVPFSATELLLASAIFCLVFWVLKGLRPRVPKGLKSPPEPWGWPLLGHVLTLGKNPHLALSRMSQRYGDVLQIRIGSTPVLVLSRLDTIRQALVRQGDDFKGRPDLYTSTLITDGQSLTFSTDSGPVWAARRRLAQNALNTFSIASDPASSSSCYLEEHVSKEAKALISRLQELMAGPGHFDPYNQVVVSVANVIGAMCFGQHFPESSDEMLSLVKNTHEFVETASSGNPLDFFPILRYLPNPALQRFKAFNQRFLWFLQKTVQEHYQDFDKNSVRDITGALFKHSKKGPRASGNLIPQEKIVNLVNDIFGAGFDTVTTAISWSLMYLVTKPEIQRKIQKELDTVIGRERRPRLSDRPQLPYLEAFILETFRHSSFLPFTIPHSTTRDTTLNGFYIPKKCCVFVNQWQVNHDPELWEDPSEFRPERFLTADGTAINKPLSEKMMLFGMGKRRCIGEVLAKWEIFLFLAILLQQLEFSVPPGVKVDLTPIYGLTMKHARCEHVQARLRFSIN
# Method: as §1
# [4] = biological target: T4, CYP2C19 (Homo sapiens, UniProt P33261); assay: CYP inhibition assay (Crespi, fluorescent probe); type: in vitro ADME
# T4 construct: five CYP isozymes (CYP3A4, 1A2, 2C9, 2C19, and 2D6) from human LM; from tissue; host or cells: human liver microsomes
# Method: as §1
# [5] = biological target: T5, CYP3A4 (Homo sapiens, UniProt P08684); assay: CYP inhibition assay (Crespi, fluorescent probe); type: in vitro ADME
# T5 construct: five CYP isozymes (CYP3A4, 1A2, 2C9, 2C19, and 2D6) from human LM; from tissue; host or cells: human liver microsomes
# Method: as §1
# [6] = Metabolic stability in liver microsomes; type: in vitro ADME; settings: mouse liver microsomes
# [7] = system: Aβ oligomers; assay: Western blot (6E10) of hippocampus soluble fraction, prophylactic trial; type: in vivo, mouse; settings: soluble fraction of hippocampal homogenates, TG mice
# [8] = Pharmacokinetics IV/PO in dogs; type: in vivo, beagle dogs; settings: for AUC(0-t): read-out: AUC0–24h
# Method: Pharmacokinetics profile of KMS88009 was obtained using ICR mice, SD rats, beagle dogs and cynomolgus monkeys. Animals were fasted overnight before KMS88009 administration. Mice were divided into 2 groups to receive KMS88009 as a single dose of 2.1 mg/kg intravenous (IV) bolus or 10 mg/kg orally (PO) by gavage. Additionally, KMS88009 was administered orally to estimate the BBB penetration in mice (10, 30 and 100 mg/kg). […] Dog received KMS88009 either as an IV bolus (1 mg/kg) via the great saphenous vein or by oral gavage (4 mg/kg). KMS88009 was administrated to monkeys as an IV bolus (1 mg/kg) via the femoral vein or by oral gavage (4 mg/kg). Vehicle for IV and PO administration was DMSO/tween-20/saline (3.3∶19.8∶[…]). […]. Brain samples were weighed and Daunce-homogenized in 10-fold volume of ice-chilled 4% bovine serum albumin (BSA) solution at room temperature. Plasma and brain homogenates were kept frozen at −70°C until analysis. The levels of KMS88009 were determined by the LC-MS/MS analysis. Pharmacokinetic parameters, time to the maximum concentration (Tmax), maximum concentration (Cmax), elimination half-life (T1/2), volume of distribution (Vd), clearance (Cl) and mean residual time (MRT), of KMS88009 were calculated based on plasma concentration-time data by a non-compartmental method using WinNonlin Version 5.2 (Pharsight, USA). Area under the curve from 0 to 24 hr (AUC0-24h) and area under the curve from 0 to infinity (AUCINF) were obtained by linear and log linear trapezoidal summations.
# T5 sequence (P08684 whole entry): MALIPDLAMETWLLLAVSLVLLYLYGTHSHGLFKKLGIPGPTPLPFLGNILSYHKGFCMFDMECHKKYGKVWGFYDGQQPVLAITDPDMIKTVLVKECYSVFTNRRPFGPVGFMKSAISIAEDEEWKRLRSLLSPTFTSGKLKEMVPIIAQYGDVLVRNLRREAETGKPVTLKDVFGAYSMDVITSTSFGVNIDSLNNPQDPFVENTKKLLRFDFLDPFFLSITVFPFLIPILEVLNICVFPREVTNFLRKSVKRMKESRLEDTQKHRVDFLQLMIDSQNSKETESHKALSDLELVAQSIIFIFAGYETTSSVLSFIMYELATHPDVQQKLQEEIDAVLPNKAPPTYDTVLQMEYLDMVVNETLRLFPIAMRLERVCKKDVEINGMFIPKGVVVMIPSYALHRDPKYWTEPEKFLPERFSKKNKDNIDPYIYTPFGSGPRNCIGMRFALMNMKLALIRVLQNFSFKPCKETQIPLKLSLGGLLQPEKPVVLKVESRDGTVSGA
# T4 sequence (P33261 whole entry): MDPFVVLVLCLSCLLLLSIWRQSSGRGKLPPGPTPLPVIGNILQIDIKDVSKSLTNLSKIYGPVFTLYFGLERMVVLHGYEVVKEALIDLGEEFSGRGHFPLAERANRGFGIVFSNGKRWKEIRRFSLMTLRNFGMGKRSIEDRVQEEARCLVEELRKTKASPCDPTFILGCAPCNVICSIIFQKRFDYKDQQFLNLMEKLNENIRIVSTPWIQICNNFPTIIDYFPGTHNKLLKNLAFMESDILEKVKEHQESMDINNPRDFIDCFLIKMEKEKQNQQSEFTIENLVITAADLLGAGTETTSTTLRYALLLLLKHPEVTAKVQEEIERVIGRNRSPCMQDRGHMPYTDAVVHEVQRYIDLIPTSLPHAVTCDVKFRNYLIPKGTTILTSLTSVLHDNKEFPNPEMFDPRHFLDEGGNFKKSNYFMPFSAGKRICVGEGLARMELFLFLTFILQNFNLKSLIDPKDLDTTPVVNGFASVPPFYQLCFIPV
# T2 sequence (P10635 whole entry): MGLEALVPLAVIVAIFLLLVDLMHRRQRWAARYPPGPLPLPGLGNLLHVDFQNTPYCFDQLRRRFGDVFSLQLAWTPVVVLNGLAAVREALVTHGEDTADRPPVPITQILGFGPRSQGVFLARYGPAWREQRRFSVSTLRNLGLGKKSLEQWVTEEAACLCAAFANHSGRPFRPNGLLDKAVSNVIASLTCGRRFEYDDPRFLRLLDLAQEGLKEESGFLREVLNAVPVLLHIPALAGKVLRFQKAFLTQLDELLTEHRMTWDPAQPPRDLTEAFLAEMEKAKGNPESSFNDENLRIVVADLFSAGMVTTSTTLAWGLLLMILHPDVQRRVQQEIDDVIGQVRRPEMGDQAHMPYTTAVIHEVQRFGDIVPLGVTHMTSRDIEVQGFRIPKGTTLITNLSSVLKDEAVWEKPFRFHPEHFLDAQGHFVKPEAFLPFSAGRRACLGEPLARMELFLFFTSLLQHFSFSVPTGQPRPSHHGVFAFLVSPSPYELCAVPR
# T1 sequence (P11712 whole entry): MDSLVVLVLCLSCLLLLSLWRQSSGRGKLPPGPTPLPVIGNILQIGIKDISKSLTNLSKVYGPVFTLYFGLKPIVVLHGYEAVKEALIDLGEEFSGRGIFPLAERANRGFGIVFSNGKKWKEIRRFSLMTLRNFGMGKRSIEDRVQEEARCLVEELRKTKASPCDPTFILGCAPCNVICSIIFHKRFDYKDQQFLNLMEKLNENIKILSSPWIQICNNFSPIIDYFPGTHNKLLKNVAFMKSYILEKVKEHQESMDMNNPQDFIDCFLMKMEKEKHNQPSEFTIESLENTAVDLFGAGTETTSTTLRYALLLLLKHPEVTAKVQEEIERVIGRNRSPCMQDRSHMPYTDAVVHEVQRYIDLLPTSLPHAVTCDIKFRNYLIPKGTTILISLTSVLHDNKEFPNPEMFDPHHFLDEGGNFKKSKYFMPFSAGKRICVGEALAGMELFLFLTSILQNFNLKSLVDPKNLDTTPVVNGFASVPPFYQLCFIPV
structure (smiles),measurement,setting,value
"COc1ccc2cc(C=Cc3ccc(N(C)C)cc3)oc2c1 [KMS88009, 6-methoxy-2-(4-dimethylaminostyryl) benzofuran]",IC50,[1],22.4 ± 1.25 µM
same,IC50,[2],> 50 µM
same,IC50,[3],0.74 ± 0.12 µM
same,IC50,[4],2.51 ± 0.21 µM
same,IC50,[5],9.84 ± 0.15 µM
same,half-life at 5 µM,[6],1.088 ± 0.01 h
same,"remaining at 1 h, 5 µM",[6]; read-out: Remaining % of parent molecule at 60 min.,52.4 ± 0.3%
same,Aβ oligomer species affected (western blot),[7],prevented the accumulation of low-molecular-weight (3-mer) and high-molecular-weight (55 to 180 kDa) Aβ oligomeric species
same,MRT last,"[8]; beagle, plasma, dog IV 1 mg/kg",2.9 ± 0.6 h
same,Vd,"[8]; beagle, plasma, dog IV 1 mg/kg",115 ± 61.1 L/kg
same,clearance,"[8]; beagle, plasma, dog IV 1 mg/kg",158 mL/min/kg
same,half-life,"[8]; beagle, plasma, dog IV 1 mg/kg",8.1 ± 1.4 h
same,MRT last,"[8]; beagle, plasma, dog PO 4 mg/kg",3.8 ± 0.4 h
same,Tmax,"[8]; beagle, plasma, dog PO 4 mg/kg",1 h
same,half-life,"[8]; beagle, plasma, dog PO 4 mg/kg",8.8 ± 2.5 h
same,AUC(0-inf),"[8]; beagle, dog IV 1 mg/kg, plasma",117 ± 43.6 ng·h/mL
same,AUC(0-t),"[8]; beagle, dog IV 1 mg/kg, plasma",112 ± 43.4 ng·h/mL
same,AUC(0-inf),"[8]; beagle, dog PO 4 mg/kg, plasma",103 ± 13 ng·h/mL
same,Cmax,"[8]; beagle, dog PO 4 mg/kg, plasma",32.8 ± 9.8 ng/mL
same,AUC(0-t),"[8]; beagle, dog PO 4 mg/kg, plasma",97.1 ± 14 ng·h/mL
same,BA,[8]; dog PO 4 mg/kg vs IV 1 mg/kg,21.6%
